Measured values published in US20220334101A1, “MODULATING EXTRACELLULAR MATRIX MOVEMENT” (Helmholtz Zentrum Muenchen - Deutsches Forschungszentrum …, priority 2019, published 2022).
Entries after “also recorded” stand apart in the source; their conditions may differ. Where a SMILES comes first, the peptide text is derived from it.

How the values were obtained:
liver tissue = experiment: In vivo effects on ECM movement in the presence of modulators (FIG. 20); settings: FIG. 20, modulator administered after injury
Procedure: An injury within liver tissue was generated, a potential modulator was administered and ECM movement was monitored.

liver = experiment: ECM (matrix) movement into liver wounds after electroporation injury, NHS-FITC matrix labelling; assay type: in vivo, mouse
peritoneum = experiment: ECM (matrix) movement into peritoneal wounds after laparotomy injury, NHS-FITC matrix labelling; assay type: in vivo, mouse; settings: inhibitors 10 μM i.p. 2 hours before surgery, organs harvested after 24 h, FITC in wound lysates
fascia fibroblasts [1] = experiment: Fascia invasion assay (ex vivo fascia 3D Matrigel culture); assay type: cell-based, mouse
Procedure: In order to observe the dynamic changes of fascia fibroblasts, the inventors isolated dorsal skin from P4 to P6 neonates of En1^Cre; R26^mTmG mouse lines. Cre positive neonates from this double transgenic mouse line were detected by green fluorescent signal in dorsal skin with a Leica M205 FA stereo microscope. Matrigel was prepared by diluting the stock aliquots with DMEM/F12 medium to a concentration of 6 mg/ml. Then 150 μl prepared gel was added in the center of a 35 mm cell culture dish (Ibidi). 4 mm biopsies were made from the dorsal skin and fascia tissues were then isolated from the dorsal skin tissues. Isolated fascia tissues were then embedded into the gel and were allowed to be solidified for one hour at 37° C. Then the tissue-gel system was maintained in DMEM/F12 medium (Life Technologies) supplemented with 10% FBS (Life Technologies), 1% non-essential amino acid (Thermo Fisher), 1% Glutamax (Thermo Fisher), 1% penicillin and streptomycin (Thermo Fisher) in a 37° C. incubator supplied with 95% O2 and 5% CO2. Medium was changed every other day until day 4 when tissues were collected and fixed. For fixation with Matrigel system, tissues were fixed in 2% paraformaldehyde (VWR) with 0.1% glutaraldehyde (Sigma) for 1 hour and then washed three times with phosphate buffered saline (PBS, Life Technologies) and stored in PBS at 4° C.
Fascia tissues were recorded everyday by a brightfield microscope to check the invasion and contraction state of the tissues. The invasion index was calculated with the following formula: Invasion index=(SD4−SD0)/SD0
SD4 and SD0 represent tissue size (including the migrated area) on Day 4 and Day 0, respectively. The contraction index was calculated with the following formula: Contraction index=(TD0−TD4)/TD0
TD4 and TD0 represent original tissue size (excluding the migrated area) on Day 4 and Day 0 respectively.
The Inventors isolated fascia from back-skin of En1^Cre; R26^mTmG double-transgenic mice, separately incubated whole fascia explants with 26 small molecules, and measured the invasion index (Si)=(SD4−SD0)/SD0 (see Methods) as a proxy measure of sprouting and reticulation.

[2] = tested on: pleural fluid matrix movement into lungs; experiment: Bleomycin-induced lung fibrosis model with pleural matrix fate tracing; assay type: in vivo, mouse
Procedure: The inventors generated a labelling solution by mixing 5 μl NHS-ester (25 mg/ml) with 5 μl of 100 mM pH 9.0 sodium bicarbonate buffer, combining with 40 μl PBS to a total volume of 50 μl. The labelling solution was applied intra pleural under isoflurane anaesthesia by using a 30G cannula. The oropharyngeal administration of bleomycin for the induction of pulmonary fibrosis was carried out in an antagonistic anesthesia in C57BL/6J mice of both sexes (6-8 weeks age). After the toe-pinch reflex was absent, the mouse was placed on the incisors of the upper jaw and thus kept in an upright position. The tongue was carefully fixed and held to the side with tweezers while the nose of the animal is covered with tweezers. By keeping the nose closed, the mouse was forced to breathe through the mouth. With the help of a pipette, bleomycin was dissolved in a dosage of 2 units/kg KGW in 80 μl PBS carefully into the throat. As soon as the animal has inhaled the solution, it was tansferred to a Hot plate (duration approx. 30 to 60 seconds). After antagonization animals were housed for 14 days. Nintedanib was added 1 hour before bleomycin installation and every other day intra peritoneal 10 μM. To directly answer if Nintedanib's anti-fibrotic actions are mediated through its effects on fluid matrix movements, the Inventors labeled fluid matrix reservoirs on lung surfaces as before, induced lung inflammation and fibrosis with Bleomycin, and followed these mice with daily injections of Nintedanib (FIG. 44B). […] Both lung alveoli and major blood vessels lacked accretions of labeled fibers.

[3] = tested on: fascia matrix mobilization into wounds; experiment: Fascia labelling study: fascia mobilization into excisional back-skin wounds in live mice; assay type: in vivo, mouse; settings: 75 μl of 250 μM three times a week, wounds collected Day 7
Procedure: For the fascia labelling study, 2 mg/ml NHS-fluorescein dye was subcutaneously injected into dorsal skin of wildtype mice at 4 days and 2 days prior to the surgery. After labelling, excisional wounds were made in mouse back-skin and treated with 75 μl saline diluted chemical solutions with a final concentration of 250 μM three times a week from the surgery day onwards. Scar samples were collected on D7.
Having discovered sprouting and reticulations are altered by the compounds, the Inventors went on to check how these effect fascia mobilization in physiologic wounds in live animals. First, the Inventors labelled the subcutaneous fascia layer with a FITC-NHS ester dye in animals, then made full thickness excisional wounds on the backs of fascia-labelled mice, and followed wound healing under the presence of a […] injection regimen using the above 3 separate compounds. Skin wounds were collected at Day 7 after wounding to determine the extent of fascia mobilization and also at 21 days post-injury to determine final wound size and scar severity. In DMSO control groups, the fascia matrix jelly was mobilized into the wound from all sides of the wound, and wounds at 7 days were completely clogged with large patches of labelled matrix jelly.

fascia fibroblasts [4] = experiment: 3D staining of fascia tissue for αSMA, Ki67 and caspase 3; assay type: cell-based, mouse; settings: fascia tissue in Matrigel
Procedure: In order to characterize the properties of fascia samples cultured in Matrigel, the Inventors fixed the whole gel (with fascia tissue embedded inside) and conducted 3D staining. Samples were immersed overnight in PBSGT (lx PBS implemented with 0.2% gelatin (Sigma), 0.5% Triton X-100 (Sigma) and 0.01% thimerosal (Sigma)) at room temperature and incubated with primary antibodies diluted in PBSGT for three days at room temperature. The tissues were then washed three times with PBSGT for at least 30 min each time and incubated with secondary antibodies diluted in PBSGT for one day. Finally, tissues were rinsed three times with PBSGT and stored in PBS at 4° C. until imaging. 3D whole mount imaging was conducted with a Leica SP8 multi-photon microscope.
Primary and secondary antibodies applied in 3D staining: αSMA (ab21027, Abcam), Ki 67 (ab16667, Abcam), Cleaved Caspase-3 (9661S, Cell signalling), Gli1 (ab49314, Abcam), Donkey anti rabbit AF647 (A-31573, Life Technologies), Donkey anti goat AF647 (A-21447, Life Technologies).
To better understand the molecular basis of reticulations that leads to scarring, the Inventors took a closer look at the molecular targets of the ‘hit’ chemicals. […] Thiostrepton reduces the binding activity of the transcriptional factor FoxM1; a positive regulator of Gli1 signaling (REF). Whereas Itraconazole inhibits Gli nuclear activity through stopping SMO moving to the membrane of primary cilia and thus inhibiting the pathway (James et al., 2010). […] The 3rd anti-scar drug Fluvastatin inhibits 3-Hydroxy-3-methylglutaryl-coenzyme A (HMG-CoA) reductase, a rate-limiting enzyme in cholesterol biogenesis that is required for hedgehog pathway activation (Huang P et al., 2016; Giovanni Luchetti et al., 2016). […] Thus, the Inventors conclude that anti-fibrosis chemicals converge on SHH pathway signaling to modulate fibroblast sprouting and reticulations, needed to mobilize fascia jelly into sites of injury.
The hedgehog pathway was also reported to induce proliferation and to depress apoptosis.

skin-fascia explants = experiment: Scar-in-a-dish (SCAD) ex vivo skin-fascia explant assay, screening of Prestwick chemical library; assay type: cell-based, mouse; settings: molecules of table 1 named as inhibitors of ECM movement
From the text: Post born Day 0 (P0) neonates of C57BL/6J wild type mouse were first sacrificed by decapitation. Then dorsal back skin was isolated to make 2 mm full thickness biopsies (0 2 mm, Stiefel) that included the epidermis, dermis and deep subcutaneous fascia layers. The whole skin tissue explant system is termed as scar-in-a-dish (SCAD) assay (Patent Application no. PLA17A13). The SCAD tissue was maintained in DMEM/F12 cell culture medium (Life Technologies) supplemented with 10% FBS (Life Technologies), 1% non-essential amino acid (Thermo Fisher), 1% Glutamax (Thermo Fisher), 1% penicillin and streptomycin (Thermo Fisher) in a 37° C. incubator supplied with […] and 5% CO2. Medium was changed every other day until day 5 when SCADs were collected and fixed for histology analysis. To be noticed, the excised skin was submerged […] in culture media, which confined the scar-prone fibroblasts to the explant and discouraged their adherence to the tissue culture plate.
The PCL provides an additional advantage as all chemicals are of stable physicochemical properties, show a high range of chemical diversity, and are with known bioavailability and safety data in humans. All these information helps to reduce the probability of screening low-quality hits and save the costs of preliminary screening process.
In order to accommodate to medium scale screening approach, the Inventors adapted the SCAD explant system into 96-well plate (Falcon) formats, with each well contained one biopsy. […] Plate and liquid handling were performed using a high-throughput screening platform system composed of a Sciclone G3 Liquid Handler from PerkinElmer (Waltham, Mass., USA). On Day 0 tissues were treated either with the respective compound (1 mM stock solution) dissolved in 100% dimethyl sulfoxide (DMSO, Carl Roth) or DMSO alone. 0.5 μl of compounds/DMSO were transferred with a 96-array head to 200 μl DMEM/F12 medium per well to keep the final DMSO concentrations at […]. Tissues were then incubated (37° C.; 5% CO2) for 72 h prior to a second round of compound treatment, which was performed by exchanging cell culture medium per well and transferring […] of compounds/DMSO into the fresh medium. After an incubation time of another 48 h (37° C.; 5% CO2) the tissues were harvested and fixed for histological processing and imaging.
Briefly, the Inventors excised 2-mm full thickness skin biopsies that included epidermis, dermis, and deep subcutaneous fascia layers from mouse backs (see Methods). Skin-fascia explants were submerged fascia-side up in culture media, to confine scar-prone fibroblasts to the explant and discourage their adherence to the tissue culture plate.
The Prestwick library has selected a diverse array of chemicals with strong physicochemical properties, with known bioavailability and clinical safety data. The library is an ideal place to start screening as it covers all major therapeutic chemical classes such as central nervous system, cardiovascular system, metabolism, and infectious diseases.

[5] = tested on: scars of splinted back-skin wounds; experiment: In vivo splinted wound model (scar formation); set-up: species or system mouse; settings: 75 μl per wound of 250 μM intra-dermally, day 21, trichrome staining
[6] = inhibitors 10 μM i.p. 2 hours before surgery, organs harvested after 24 h, FITC in wound lysates

## O=C(O)C1(c2ccc3c(c2)OC[C@H](Cc2ccc(-c4ccccc4)cc2)[C@H]3O)CCCC1 [CP-105696]
Liver tissue
  effect on ECM movement towards the site of injury (phenotype): anti-fibrotic phenotype

## CN(C(=O)c1cc2ccccc2cc1C(=O)C(c1cccc2ccccc12)P(=O)(O)O)C1CCN(C(=O)c2ccccc2)CC1 (stereo not shown) [Cath-G inhibitor]
Liver tissue
  effect on ECM movement towards the site of injury (phenotype): anti-fibrotic phenotypes
Liver tissue; listed as cathepsin G inhibitors
  effect on ECM movement towards the site of injury (phenotype): inhibit ECM movement
liver; [6]
  ECM (matrix) movement, liver: decreased

## CC(C)C[C@H](NC(=O)N[C@H](C(=O)N[C@@H](CCC(N)=O)C(=O)N[C@@H](C)C=O)[C@@H]1CCNC(=N)N1)C(=O)O [Elastatinal]
Liver tissue; listed as Elastial
  effect on ECM movement towards the site of injury (phenotype): pro-fibrotic phenotype
Liver tissue; listed as elastial
  effect on ECM movement towards the site of injury (phenotype): promote ECM movement
peritoneum
  ECM (matrix) movement, peritoneum: increased
liver; [6]
  ECM (matrix) movement, liver: increased

## COC(=O)Nc1nc2ccc(Sc3ccccc3)cc2[nH]1 [Fenbendazole]
Fascia fibroblasts [1]
  toxic effects to fascia tissues: toxic effects

## CNC(=O)[C@H](Cc1c[nH]c2ccccc12)NC(=O)[C@@H](CC(=O)NO)CC(C)C [GM6001]
Liver tissue
  effect on ECM movement towards the site of injury (phenotype): anti-fibrotic phenotypes; also recorded: inhibit ECM movement
peritoneum
  ECM (matrix) movement, peritoneum: decreased
liver; livers and peritoneas
  potency among the protease inhibitors on matrix currents: most potent
liver; mouse, in vivo, ip
  ECM (matrix) movement, liver: decreased

## COC(=O)[C@@H](N)CCCNC(=N)N[N+](=O)[O-] [L-Name]
Liver tissue
  effect on ECM movement towards the site of injury (phenotype): anti-fibrotic phenotype

## CCc1cc(C(C)=O)c(O)cc1OCCCCCC(C)(C)c1nn[nH]n1 [LY255283]
Liver tissue
  effect on ECM movement towards the site of injury (phenotype): anti-fibrotic phenotypes; also recorded: inhibit ECM movement

## COC(=O)c1ccc2c(c1)NC(=O)/C2=C(\Nc1ccc(N(C)C(=O)CN2CCN(C)CC2)cc1)c1ccccc1 [Nintedanib]
[2]; Nintedanib 10 μM i.p. 1 hour before bleomycin and repeatedly, 14 days
  inward translocations (movements) of fluid matrix: completely abrogated
[2]; two weeks after bleomycin
  activation of lung interstitial fibroblasts into myofibroblasts: refrained from activating into pathologic YAP/TAZ-positive myofibroblasts
  matrix on lung surfaces (pleural matrix pools): structures and fluorescence intensity: maintained the same structures and fluorescence intensity; also recorded: rescues pleural matrix pools
[2]; two weeks after bleomycin, histology
  fibrotic developments along lung airways and bronchioles: very minimal signs of fibrotic developments

## CC(=N)NCc1cccc(CN)c1 [Prestw 1400W, 1400W]
Liver tissue
  effect on ECM movement towards the site of injury (phenotype): anti-fibrotic phenotypes
Liver tissue; listed as W1400
  effect on ECM movement towards the site of injury (phenotype): inhibit ECM movement

## O=c1c(O)c(-c2ccc(O)c(O)c2)oc2cc(O)cc(O)c12 [Quercetin]
peritoneum
  ECM (matrix) movement, peritoneum: decreased
liver; [6]
  ECM (matrix) movement, liver: decreased

## C=C(NC(=O)C(=C)NC(=O)c1csc(C2=N[C@@H]3c4csc(n4)[C@H]4NC(=O)c5csc(n5)[C@H]([C@](C)(O)[C@@H](C)O)NC(=O)[C@H]5CSC(=N5)/C(=C/C)NC(=O)[C@H]([C@@H](C)O)NC(=O)c5csc(n5)[C@]3(CC2)NC(=O)[C@H](C)NC(=O)C(=C)NC(=O)[C@H](C)NC(=O)[C@H]([C@@H](C)CC)N[C@@H]2C=Cc3c([C@H](C)O)cc(nc3[C@H]2O)C(=O)O[C@@H]4C)n1)C(N)=O [Thiostrepton]
[3]
  fascia (matrix jelly) mobilization into wounds: reduced fascia jelly movements; also recorded: inhibited
Fascia fibroblasts [4]
  cell death (caspase 3): increased
  cell proliferation activity (Ki67): decreased
Fascia fibroblasts [1]
  inter-cell connectivity, sprouting and reticulations within the fascia: completely inhibited sprouting and reticulations
skin-fascia explants
  phenotype as inhibitor of ECM movement: anti-fibrotic phenotype
[5]
  scar size / scarring of wounds: reduced scaring of wounds

## COC(=O)CCC(=O)N[C@@H](C)C(=O)N[C@@H](C)C(=O)N1CCC[C@H]1C(=O)N[C@@H](C)C(=O)CCl [elastase inhibitor II] (HELM PEPTIDE1{[COC(=O)CCC(=O)[*:2]].A.A.P.A.[ClC[*:1]]}$$$$V2.0)
peritoneum
  ECM (matrix) movement, peritoneum: increased
liver; [6]
  ECM (matrix) movement, liver: increased
